Columns and labels:
[1] = target: T1, Protein deacetylase HDAC6 (Homo sapiens, UniProt Q9UBN7); assay: Inhibition of HDAC6 (unknown origin)
T1 sequence (Q9UBN7 whole entry): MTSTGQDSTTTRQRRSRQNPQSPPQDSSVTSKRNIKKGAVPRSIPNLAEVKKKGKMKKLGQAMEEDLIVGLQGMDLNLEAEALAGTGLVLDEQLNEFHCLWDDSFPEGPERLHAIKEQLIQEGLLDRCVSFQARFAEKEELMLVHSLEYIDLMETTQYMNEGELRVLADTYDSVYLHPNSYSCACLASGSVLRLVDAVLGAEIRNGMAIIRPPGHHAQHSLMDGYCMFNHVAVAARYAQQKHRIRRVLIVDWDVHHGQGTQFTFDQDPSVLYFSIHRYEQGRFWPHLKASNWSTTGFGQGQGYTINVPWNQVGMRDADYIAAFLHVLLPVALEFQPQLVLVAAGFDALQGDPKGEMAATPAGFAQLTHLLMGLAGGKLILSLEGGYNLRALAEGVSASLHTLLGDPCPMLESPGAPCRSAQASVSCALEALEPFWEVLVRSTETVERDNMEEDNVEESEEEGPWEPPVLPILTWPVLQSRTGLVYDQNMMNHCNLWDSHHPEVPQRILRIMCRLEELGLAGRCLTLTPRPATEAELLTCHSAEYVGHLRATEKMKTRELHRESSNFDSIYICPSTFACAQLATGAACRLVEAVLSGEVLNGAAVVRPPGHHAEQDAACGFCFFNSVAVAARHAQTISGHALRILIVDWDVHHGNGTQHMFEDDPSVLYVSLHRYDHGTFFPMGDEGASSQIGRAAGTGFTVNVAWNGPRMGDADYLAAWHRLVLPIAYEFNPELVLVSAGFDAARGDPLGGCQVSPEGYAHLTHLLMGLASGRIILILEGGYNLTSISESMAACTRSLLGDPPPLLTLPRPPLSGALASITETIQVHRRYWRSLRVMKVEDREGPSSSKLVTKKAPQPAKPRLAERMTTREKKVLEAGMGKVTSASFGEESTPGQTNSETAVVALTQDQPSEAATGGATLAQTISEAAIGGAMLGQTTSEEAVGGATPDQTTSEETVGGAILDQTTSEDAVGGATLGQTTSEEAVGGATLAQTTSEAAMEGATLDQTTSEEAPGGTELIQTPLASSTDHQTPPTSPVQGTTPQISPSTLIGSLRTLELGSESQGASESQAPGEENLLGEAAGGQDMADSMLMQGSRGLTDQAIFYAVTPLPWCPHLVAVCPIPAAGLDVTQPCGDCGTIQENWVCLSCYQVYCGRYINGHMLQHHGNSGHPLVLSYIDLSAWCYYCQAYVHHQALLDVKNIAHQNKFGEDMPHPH

MV4-11 [2] = assay: cells; assay type: functional, cell-based; conditions: Homo sapiens, MV4-11, 72 h
Description: Antiproliferative activity against human MV4-11 cells assessed as inhibition of cell proliferation incubated for 72 hrs by CCK8 assay

K562 = assay: cells; assay type: functional, cell-based; conditions: Homo sapiens, K562, 72 h
Description: Antiproliferative activity against human K562 cells assessed as inhibition of cell proliferation incubated for 72 hrs by CCK8 assay

MV4-11 [3] = assay: Induction of apoptosis in human MV4-11 cells assessed as late apoptotic cells at 150 nM incubated for 48 hrs by Annexin V-FITC/PI staining based flow cytometry (reference value: 2.04%); assay type: functional
MV4-11 [4] = assay: Induction of apoptosis in human MV4-11 cells assessed as necrotic cells at 150 nM incubated for 48 hrs by Annexin V-FITC/PI staining based flow cytometry (reference value: 0.51%); assay type: functional
MV4-11 [5] = assay: Induction of apoptosis in human MV4-11 cells assessed as viable cells at 450 nM incubated for 48 hrs by Annexin V-FITC/PI staining based flow cytometry (reference value: 96.5%); assay type: functional; conditions: read-out: Activity
MV4-11 [6] = assay: Induction of apoptosis in human MV4-11 cells assessed as early apoptotic cells at 450 nM incubated for 48 hrs by Annexin V-FITC/PI staining based flow cytometry (reference value: 0.95%); assay type: functional
MV4-11 [7] = assay: Induction of apoptosis in human MV4-11 cells assessed as late apoptotic cells at 450 nM incubated for 48 hrs by Annexin V-FITC/PI staining based flow cytometry (reference value: 2.04%); assay type: functional
MV4-11 [8] = assay: Induction of apoptosis in human MV4-11 cells assessed as necrotic cells at 450 nM incubated for 48 hrs by Annexin V-FITC/PI staining based flow cytometry (reference value: 0.51%); assay type: functional
MV4-11 [9] = assay: Induction of apoptosis in human MV4-11 cells assessed as total apoptotic cells at 150 nM incubated for 48 hrs by Annexin V-FITC/PI staining based flow cytometry (reference value: 2.99%); assay type: functional
MV4-11 [10] = assay: Induction of cell cycle arrest in human MV4-11 cells assessed as accumulation of cells at G0/G1 phase at 50 nM incubated for 48 hrs by […]PI staining based flow cytometry (reference value: 33.1%); assay type: functional
MV4-11 [11] = assay: Induction of cell cycle arrest in human MV4-11 cells assessed as accumulation of cells at S phase at 50 nM incubated for 48 hrs by […]PI staining based flow cytometry (reference value: 45.5%); assay type: functional
MV4-11 [12] = assay: Induction of cell cycle arrest in human MV4-11 cells assessed as accumulation of cells at G2/M phase at 50 nM incubated for 48 hrs by […]PI staining based flow cytometry (reference value: 11.5%); assay type: functional
MV4-11 [13] = assay: Induction of cell cycle arrest in human MV4-11 cells assessed as accumulation of cells at G0/G1 phase at 150 nM incubated for 48 hrs by […]PI staining based flow cytometry (reference value: 33.1%); assay type: functional
MV4-11 [14] = assay: Induction of cell cycle arrest in human MV4-11 cells assessed as accumulation of cells at S phase at 150 nM incubated for 48 hrs by […]PI staining based flow cytometry (reference value: 45.5%); assay type: functional
MV4-11 [15] = assay: Induction of cell cycle arrest in human MV4-11 cells assessed as accumulation of cells at G0/G1 phase at 450 nM incubated for 48 hrs by […]PI staining based flow cytometry (reference value: 33.1%); assay type: functional
MV4-11 [16] = assay: Induction of cell cycle arrest in human MV4-11 cells assessed as accumulation of cells at G2/M phase at 450 nM incubated for 48 hrs by […]PI staining based flow cytometry (reference value: 11.5%); assay type: functional
MV4-11 [17] = assay: Induction of cell cycle arrest in human MV4-11 cells assessed as accumulation of cells at S phase at 1350 nM incubated for 48 hrs by […]PI staining based flow cytometry (reference value: 45.5%); assay type: functional
MV4-11 [18] = assay: Induction of cell cycle arrest in human MV4-11 cells assessed as accumulation of cells at G2/M phase at 1350 nM incubated for 48 hrs by […]PI staining based flow cytometry (reference value: 11.5%); assay type: functional
MV4-11 [19] = assay: Inhibition of PI3K in human MV4-11 cells assessed as downregulation of phosphorylated AKT expression incubated for 24 hrs by western blot analysis; assay type: cell-based; conditions: dose 0.05-0.45 µM, DDE = dose-dependent effect
[20] = target: T2, Protein deacetylase HDAC6 (Homo sapiens) (UniProt Q9UBN7); conditions: dose 100.0 nM
T2 sequence (whole entry): T1 sequence (Q9UBN7 whole entry)
Description: Inhibition of HDAC6 (unknown origin) at 100 nM

SMILES: O=C(NO)c1ccc(Cn2cc(-c3cccc4[nH]ncc34)nc(N3CCOCC3)c2=O)cc1
- IC50 [1]: 4.5 nM
- IC50 (MV4-11 [2]): 90 nM
- IC50 (K562): 120 nM
- Activity (MV4-11 [3]): 14.5%
- Activity (MV4-11 [4]): 3.45%
- viability at 0.45 µM (MV4-11 [5]): 18.7%
- Activity (MV4-11 [6]): 34.6%
- Activity (MV4-11 [7]): 46.1%
- Activity (MV4-11 [8]): 0.69%
- Activity (MV4-11 [9]): 16.94%
- Activity (MV4-11 [10]): 28.4%
- Activity (MV4-11 [11]): 37.8%
- Activity (MV4-11 [12]): 24.6%
- Activity (MV4-11 [13]): 25.6%
- Activity (MV4-11 [14]): 31%
- Activity (MV4-11 [15]): 15.1%
- Activity (MV4-11 [16]): 38.3%
- Activity (MV4-11 [17]): 25.2%
- Activity (MV4-11 [18]): 51.8%
- inhibition (MV4-11 [19]): Dde
- inhibition [20]: 90%

— ChEMBL document CHEMBL5096219, “Design, synthesis and biological evaluation of novel pyrazinone derivatives as PI3K/HDAC dual inhibitors” (Bioorg Med Chem, 2022)
